Measurements as given in patent US10059667B2, “Antidiabetic compounds” (MERCK SHARP & DOHME CORP., priority 2014, dated 2018).

What was measured:
Human GPR40 [1] = biological target: T1, Human GPR40 (Homo sapiens (Human), UniProt O14842); test: FLIPR assay, agonist-induced calcium mobilization in GPR40/CHO NFAT BLA cells; assay type: cell-based
Experimental: (§1) Human and mouse GPR40 stable cell-lines were generated in CHO cells stably expressing NFAT BLA (Beta-lactamase). A human GPR40 stable cell-line was generated in HEK cells stably expressing the aequorin expressing reporter. The expression plasmids were transfected using lipofectamine (Life Technologies) following manufacturer's instructions. Stable cell-lines were generated following drug selection.
FLIPR (Fluorimetric Imaging Plate Reader, Molecular Devices) assays were performed to measure agonist-induced calcium mobilization of the stable clones. For the FLIPR assay, one day before assay, GPR40/CHO NFAT BLA cells were seeded into black-wall-clear-bottom 384-well plates (Costar) at 1.4×10e4 cells/20 μL medium/well. The cells were incubated with 20 μl/well of the assay buffer (HBSS, 0.1% BSA, 20 mM HEPES, 2.5 mM probenecid, pH 7.4) containing 8 μM fluo-4, AM, 0.08% pluronic acid at room temperature for 100 minutes. Fluorescence output was measured using FLIPR. Compounds were dissolved in DMSO and diluted to desired concentrations with assay buffer. 13.3 μL/well of compound solution was added.

Human GPR40 [2] = biological target: T1, Human GPR40; test: Inositol Phosphate Turnover (IP1) Assay 1, HEK cells stably expressing human GPR40, 3H-inositol SPA; assay type: cell-based; settings: HEK cells stably expressing human GPR40, 96-well
Experimental: as §1
The assay was performed in 96-well format. HEK cells stably expressing human GPR40 were plated to be 60-80% confluent within 72 h. After 72 h, the plates were aspirated and the cells washed with inositol-free DMEM (ICN). The wash media was replaced with 150 μL of 3H-inositol labeling media (inositol-free media containing 0.4% human albumin or 0.4% mouse albumin, 1× pen/strep antibiotics, glutamine, 25 mM HEPES to which was added 3H-myo-inositol NEN #NET114A 1 mCi/mL, 25 Ci/mmol diluted 1:150 in loading media with a final specific radioactivity of 1 μCi/150 μL). Alternatively, the human and mouse albumin can be added after the overnight labeling step before the addition of LiCl.
The assay was typically run the next day after 18 h labeling. On the day of the assay, 5 μL of 300 mM LiCl was added to all wells and incubated at 37 degrees for 20 min. 0.75 μL of each compound was added and incubated with the cells for 60 min at 37 degrees. The media was then aspirated off and the assay terminated with the addition of 60 μL 10 mM formic acid. The cells were lysed for 60 min at room temperature. 15-30 μL of lysate was mixed with 70 μL/1 mg YSi SPA beads (Amersham) in clear bottom Isoplates. The plates were shaken for 2 h at room temperature. Beads were allowed to settle and the plates were counted in the Wallac Microbeta.

T1 sequence (O14842 whole entry): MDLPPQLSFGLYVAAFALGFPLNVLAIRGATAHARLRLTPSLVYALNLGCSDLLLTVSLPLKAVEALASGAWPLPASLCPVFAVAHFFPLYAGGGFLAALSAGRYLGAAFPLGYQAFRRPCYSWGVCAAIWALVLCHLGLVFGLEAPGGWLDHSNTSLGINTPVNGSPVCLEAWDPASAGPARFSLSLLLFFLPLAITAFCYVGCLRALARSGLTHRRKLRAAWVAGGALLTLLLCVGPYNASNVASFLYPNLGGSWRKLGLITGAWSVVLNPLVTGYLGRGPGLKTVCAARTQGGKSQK

Row | SMILES | EC50 (Human GPR40 [1]) [nM] | EC50 (Human GPR40 [2]) [nM]
1 | O=C(O)C[C@H](c1cccc(OC2CC3(CCN(Cc4cc(C(F)(F)F)ccc4C(F)(F)F)C3)C2)c1)C1CC1 (single isomer, unassigned) [Example 5A] | 455 | 4150
2 | O=C(O)C[C@H](c1cccc(OC2CC3(CCN(Cc4cc(C(F)(F)F)ccc4C(F)(F)F)C3)C2)c1)C1CC1 (single isomer, unassigned) [Example 5B] | 113 | 2140
3 | O=C(O)C[C@H](c1cccc(OC2CCN(Cc3cccc(C(F)(F)F)c3)C2)c1)C1CC1 (stereo partly drawn) [Example 45] | 387 | –
4 | CC(c1cc(F)ccc1F)N1CC(COc2cccc([C@@H](CC(=O)O)C3CC3)c2)C1 (stereo partly drawn) [Example 57] | 480 | –
5 | COc1ccc(F)c(OC2CC(COc3cccc([C@H](C4CC4)[C@H](C)C(=O)O)c3)C2)c1 (stereo partly drawn) [Example 81, (2S,3R)-3-cyclopropyl-3-(3-((3-(2-fluoro-5-methoxyphenoxy)cyclobutyl)methoxy)phenyl)-2-methylpropanoic acid] | – | 45
6 | COc1cccc(C2CC2COc2cccc([C@H](C3CC3)[C@H](C)C(=O)O)c2)c1 (stereo partly drawn) [Example 82, (2S,3R)-3-cyclopropyl-3-(3-((2-(3-methoxyphenyl)cyclopropyl)methoxy)phenyl)-2-methylpropanoic acid] | – | 172
7 | COc1cccc(C2CC(COc3cccc([C@H](C4CC4)[C@H](C)C(=O)O)c3)C2)c1 (stereo partly drawn) [Example 85] | – | 35
8 | COc1cc(C2CC(COc3cccc([C@H](C4CC4)[C@H](C)C(=O)O)c3)C2)ccn1 (stereo partly drawn) [Example 86] | – | 102
9 | C[C@H](C(=O)O)[C@H](c1cccc(OCC2CC(Oc3ccccc3)C2)c1)C1CC1 (stereo partly drawn) [Example 92, (2S,3R)-3-cyclopropyl-2-methyl-3-(3-((3-phenoxycyclobutyl)methoxy)phenyl)-propanoic acid] | – | 208
10 | COc1cc(OC2CC(COc3cccc([C@H](C4CC4)[C@H](C)C(=O)O)c3)C2)ccn1 (stereo partly drawn) [Example 93] | – | 181
11 | C[C@H](C(=O)O)[C@H](c1cccc(OCC2CC(Oc3ccccc3F)C2)c1)C1CC1 (stereo partly drawn) [Example 94] | – | 110
12 | C[C@H](C(=O)O)[C@H](c1cccc(OCC2CC(Oc3ccc(OC(F)F)nc3)C2)c1)C1CC1 (stereo partly drawn) [Example 95] | – | 1390
13 | COc1ncc(OC2CC(COc3cccc([C@H](C4CC4)[C@H](C)C(=O)O)c3)C2)cn1 (stereo partly drawn) [Example 96] | – | 8230
14 | Cc1cc(OC2CC(COc3cccc([C@H](C4CC4)[C@H](C)C(=O)O)c3)C2)n(C)n1 (stereo partly drawn) [Example 97] | – | 7240
15 | Cc1c(OC2CC(COc3cccc([C@H](C4CC4)[C@H](C)C(=O)O)c3)C2)nn(C)c1C(F)(F)F (stereo partly drawn) [Example 100] | – | 560
16 | C[C@H](C(=O)O)[C@H](c1cccc(OCC2CC(Oc3ccnn3C)C2)c1)C1CC1 (stereo partly drawn) [Example 101] | – | 7220
17 | C[C@H](C(=O)O)[C@H](c1cccc(OCC2CC(Oc3ccccn3)C2)c1)C1CC1 (stereo partly drawn) [Example 102] | – | 643
18 | C[C@H](C(=O)O)[C@H](c1cccc(OCC2CC(Oc3ccccn3)C2)c1)C1CC1 (stereo partly drawn) [Example 103] | – | 187
19 | COc1cc(OC2CC(COc3cccc([C@H](C4CC4)[C@H](C)C(=O)O)c3)C2)c(F)cn1 (stereo partly drawn) [Example 106] | – | 54
20 | C[C@H](C(=O)O)[C@H](c1cccc(OCC2CC(Oc3cccnc3)C2)c1)C1CC1 (stereo partly drawn) [Example 109] | – | 7190
21 | C[C@H](C(=O)O)[C@H](c1cccc(OCC2CC(Oc3cccnc3)C2)c1)C1CC1 (stereo partly drawn) [Example 110] | – | 1960
22 | C[C@H](C(=O)O)[C@H](c1cccc(OCC2CC(Oc3ccnc4c3OCCO4)C2)c1)C1CC1 (stereo partly drawn) [Example 111] | – | 3100
23 | CCOc1ccccc1OC1CC(COc2cccc([C@H](C3CC3)[C@H](C)C(=O)O)c2)C1 (stereo partly drawn) [Example 112] | – | 109
24 | CCOc1ccc(OC2CC(COc3cccc([C@H](C4CC4)[C@H](C)C(=O)O)c3)C2)cc1 (stereo partly drawn) [Example 113] | – | 1210
25 | C[C@H](C(=O)O)[C@H](c1cccc(OCC2CC(Oc3c(F)cccc3F)C2)c1)C1CC1 (stereo partly drawn) [Example 114] | – | 107
26 | C[C@H](C(=O)O)[C@H](c1cccc(OCC2CC(Oc3cc(F)ccc3F)C2)c1)C1CC1 (stereo partly drawn) [Example 115] | – | 110
27 | COc1ccc(OC2CC(COc3cccc([C@H](C4CC4)[C@H](C)C(=O)O)c3)C2)cc1 (stereo partly drawn) [Example 124] | – | 577
28 | COc1ccc(OC2CC(COc3cccc([C@H](C4CC4)[C@H](C)C(=O)O)c3)C2)cc1 (stereo partly drawn) [Example 125] | – | 565

Row | SMILES | EC50 (Human GPR40 [1]) [nM] | EC50 (Human GPR40 [2]) [nM]
29 | COc1ccccc1OC1CC(COc2cccc([C@H](C3CC3)[C@H](C)C(=O)O)c2)C1 (stereo partly drawn) [Example 128] | – | 72
30 | CCOc1cccc(OC2CC(COc3cccc([C@H](C4CC4)[C@H](C)C(=O)O)c3)C2)c1 (stereo partly drawn) [Example 131] | – | 119
31 | C[C@H](C(=O)O)[C@H](c1cccc(OCC2CC(Oc3ccccc3-c3ccccc3)C2)c1)C1CC1 (stereo partly drawn) [Example 132] | – | 150
32 | C[C@H](C(=O)O)[C@H](c1cccc(OCC2CC(Oc3cccc4c3OC(C)(C)C4)C2)c1)C1CC1 (stereo partly drawn) [Example 135] | – | 307
33 | C[C@H](C(=O)O)[C@H](c1cccc(OCC2CC(Oc3cccc(C(F)(F)F)c3)C2)c1)C1CC1 (stereo partly drawn) [Example 136] | – | 262
34 | C[C@H](C(=O)O)[C@H](c1cccc(OC[C@H]2C[C@@H]2c2cccc(OC(F)(F)F)c2)c1)C1CC1 [Example 137] | – | 176
35 | C[C@H](C(=O)O)[C@H](c1cccc(OC[C@H]2C[C@@H]2c2cccc(OC3CC3)c2)c1)C1CC1 [Example 138] | – | 74
36 | COc1ccc(OC)c([C@H]2C[C@@H]2COc2cccc([C@H](C3CC3)[C@H](C)C(=O)O)c2)c1 [Example 139] | – | 188
37 | COc1cccc([C@H]2C[C@@H]2COc2cccc([C@H](C3CC3)[C@H](C)C(=O)O)c2)c1F [Example 140] | – | 225
38 | COc1cc(F)cc([C@H]2C[C@@H]2COc2cccc([C@H](C3CC3)[C@H](C)C(=O)O)c2)c1 [Example 141] | – | 109
39 | COc1ccc(F)c([C@H]2C[C@@H]2COc2cccc([C@H](C3CC3)[C@H](C)C(=O)O)c2)c1F [Example 142] | – | 78
40 | C[C@H](C(=O)O)[C@H](c1cccc(OC[C@H]2C[C@@H]2c2cc(C(F)(F)F)ccc2Cl)c1)C1CC1 [Example 143] | – | 175
41 | C[C@H](C(=O)O)[C@H](c1cccc(OC[C@H]2C[C@@H]2c2ccc(F)c(C(F)(F)F)c2)c1)C1CC1 [Example 144] | – | 385
42 | C[C@H](C(=O)O)[C@H](c1cccc(OC[C@H]2C[C@@H]2c2cc(OC(F)(F)F)ccc2F)c1)C1CC1 [Example 145] | – | 223
43 | C[C@H](C(=O)O)[C@H](c1cccc(OC[C@H]2C[C@@H]2c2cc(OC(F)(F)F)ccc2Cl)c1)C1CC1 [Example 146] | – | 111
44 | C[C@H](C(=O)O)[C@H](c1cccc(OC[C@H]2C[C@@H]2c2cccnc2)c1)C1CC1 [Example 147] | – | 4440
45 | COc1ncc([C@H]2C[C@@H]2COc2cccc([C@H](C3CC3)[C@H](C)C(=O)O)c2)cc1F [Example 149] | – | 802
46 | COc1cncc([C@H]2C[C@@H]2COc2cccc([C@H](C3CC3)[C@H](C)C(=O)O)c2)c1 [Example 150] | – | 4470
47 | C[C@H](C(=O)O)[C@H](c1cccc(OC[C@H]2C[C@@H]2c2cc(F)ccc2F)c1)C1CC1 [Example 151] | – | 90
48 | C[C@H](C(=O)O)[C@H](c1cccc(OC[C@H]2C[C@@H]2c2cc(Cl)ccc2F)c1)C1CC1 [Example 152] | – | 89
49 | COc1cc(F)c([C@H]2C[C@@H]2COc2cccc([C@H](C3CC3)[C@H](C)C(=O)O)c2)cc1F [Example 153] | – | 325
50 | COc1ccc([C@H]2C[C@@H]2COc2cccc([C@H](C3CC3)[C@H](C)C(=O)O)c2)c(F)c1 [Example 154] | – | 544
51 | C[C@H](C(=O)O)[C@H](c1cccc(OC[C@H]2C[C@@H]2c2cc(C(F)(F)F)ccc2C(F)(F)F)c1)C1CC1 [Example 155] | – | 316
52 | C[C@H](C(=O)O)[C@H](c1cccc(OC[C@H]2C[C@@H]2c2ccc(Cl)c(C(F)(F)F)c2)c1)C1CC1 [Example 156] | – | 355
53 | C[C@H](C(=O)O)[C@H](c1cccc(OC[C@H]2C[C@@H]2c2cc(C(F)(F)F)ccc2F)c1)C1CC1 [Example 157] | – | 130
54 | COc1ccc(Cl)c([C@H]2C[C@@H]2COc2cccc([C@H](C3CC3)[C@H](C)C(=O)O)c2)c1 [Example 158] | – | 26
55 | COc1ccc([C@H]2C[C@@H]2COc2cccc([C@H](C3CC3)[C@H](C)C(=O)O)c2)cc1 [Example 159] | – | 472
